The text below walks through data of patent publication US12599560B2, “Lipids and lipid nanoparticle formulations” (Longuide Biopharma Corporation, priority 2023, dated 2026).

One series has as its system Delta-S protein. Put plainly: In vivo immunization with Delta Spike mRNA LNP, serum ELISA for specific antibody. To be noted: serum after second administration; IV. More on the design: species or system mice. How it is done:
Lipid nanoparticles encapsulating the nucleic acid drugs were prepared according to step 2. The mRNA was replaced with Delta Spike full length mRNA (Shanghai Zhaowei Science and Technology Development Co., Ltd.) and then administered to the mice at a dose of 5 μg per mouse, and on the 14th day after the first immunization, the whole blood of the mice was collected by canthus sampling, and the drug administration was repeated for the second immunization. On the 14th day after the second immunization, the whole blood was collected from mice by canthus sampling. The whole blood was centrifuged at 5000 rcf for 5 mn, and the supernatant was centrifuged at 10000 rcf for 5 min to obtain the serum, which was aliquated into serial tubes and stored in the refrigerator at −20° C.
• 9.2.1 Coating: Add 100 μL of 0.2 μg/100 μL Delta-S protein (Novoprotein Scientific Inc.) dilution solution to each well, and leave it in the refrigerator at 4° C. overnight. • 9.2.2 Washing: Add 200 μL of PBST (PBS buffer solution containing 0.05% Tween-20 at pH 7.4) to each well and wash three times. • 9.2.3 Blocking: Add 200 μL of 5% (w/v) BSA-PBS solution (BSA bovine serum albumin, Bioss Biotechnology Co., Ltd.) to each well, and shake for 2 h at 50 rcf at room temperature using a shaker. • 9.2.4 Washing: Add 200 μL of PBST to each well to wash once. • 9.2.5 Adding samples: Add 100 μL of serum diluted 200 times with PBS (0.5 μL of serum) to each well (for the ELISA titer assay, serum diluted 200 times, 800 times, 3200 times, 12800 times, 51200 times, 204800 times), and shake at room temperature for 2 h at 50 rcf using a shaker. • 9.2.6 Washing: Add 200 μL of PBST into each well for three times. • 9.2.7 Adding detection antibody: Add 100 μL of HRP-labeled goat anti-mouse IgG detection antibody (0.1 μL of antibody master batch) (Sangon Biotech (Shanghai) Co., Ltd.) diluted 1000-fold into each well, and shake at 50 rcf for 1 h at room temperature using a shaker. • 9.2.8 Washing: Add 200 μL of PBST to each well and wash three times. • 9.2.9 Adding TMB (Beijing Solarbio Science & Technology Co., Ltd.): Add 50 μL of TMB mixture with the volume ratio of liquid A:liquid B of 1:1 to each well, and react for 5 mn (ELISA of blood sample I), 7 min 58 sec (ELISA of blood sample II), and react for about 5 min (ELISA titer of blood sample II). • 9.2.10 Adding phosphate (Aladdin Reagent (Shanghai) Co., Ltd.): add 50 μL of 1 mol/L phosphate per well to terminate the reaction. • 9.2.11 Detection: Use multi-function plate reader for detection. 9.3. Neutralization Antibody Levels Detected by Pseudovirus Neutralization Assay • 9.3.1 Cell seeding: 293T-ACE2 cells (Fubio (Suzhou) Biomedical Technology Co., Ltd.) were inoculated with 1×10^5 cells in each well of a 48-well plate at a concentration of 1×10^5 cells in 300 μL of DMEM medium (containing 10% heat-inactivated FBS without bispecific antibody), the 48-well plate was labeled with information such as “number, cell type, number of generations, medium type, date and name”, and then the cells were cultured in a cell culture incubator at 37° C. with 5% CO2 for 18 hours. • 9.3.2 Before the pseudovirus transfection operation, prepare an ice box, re-dissolve the serum to be used on ice, thaw on ice the virus from the −25° C. refrigerator. After thawing, the serum and pseudovirus were flicked homogenously and centrifuged with a palm centrifuge. • 9.3.3 Examine the neutralization antibody with serum diluted in different ratios: use complete culture medium to dilute the pseudovirus (Fubio (Suzhou) Biomedical Technology Co., Ltd.) and mouse serum respectively, mix them well, and then dilute them 40-fold, 100-fold, 250-fold and 625-fold according to the final concentration of the cells of incubation. […]
In general terms: In an ELISA, binding on a coated surface is turned into a signal by an enzyme label.

Series [1] can be described thus: Particle size and PDI by dynamic light scattering. It is filed as physicochemical. As to the method: The 7.5 μL nucleic acid lipid nanoparticle solution (containing approximately 0.04 mg/mL mRNA) was taken and added with 200 μL ultrapure water, mixed by gentle blowing using a pipette tip, and the particle size of the nanopreparation was detected by dynamic lightscattering (DLS) using a Malvern Dynamic Light Scattering Instrument (Malvern Instruments Ltd., ZEN3700, UK). 27.5 μL nucleic acid lipid nanoparticle solution (containing about 0.04 mg/mL mRNA) was taken and added with 200 μL ultrapure water. A pipette tip was used to gently blow the sample and mix well. The particle size of the nanopreparation was detected by Malvern Dynamic Light Scattering Instrument (Malvern Instruments Ltd., ZEN3700, UK). After the detection, the sample was recovered to an EP tube, and 600 μL of ultrapure water was added, gently blown with a pipette tip, and the potential of the nanopreparation was measured by a Malvern particle size meter.

A further series relates to mice. Put plainly: In vivo delivery of FLuc-mRNA lipid nanoparticle preparations in mice (IVIS imaging). More on the design: In vivo IVIS / In vivo IVIS (liver) / In vivo IVIS (spleen): unit not given here. Conditions: for in vivo delivery efficiency as compared to the benchmark compound SM102: certain formulations. As to the method: 7. In Vivo Delivery of the Nucleic Acid Lipid Nanoparticle Preparations in Mice After the preparation was completed, the preparation was injected intramuscularly (mice rectus femoris muscle of the thigh) or intravenously (mice tail vein), with approximately 75 μL per mouse, for a total of 3 mice. After a certain time of injection, in vivo imaging (PerkinElmer, IVIS Lumina III) was performed. 10-15 minutes before imaging, 200 μL of 15 mg/mL D-Luciferin working solution was injected intraperitoneally, and the imaging analysis was performed using an in vivo imager.

The mark [2] stands for this setting: Table 4, molar ratio 1.40:11.15:38.95:48.50, N/P 40, IM formulation.
The mark [3] stands for this setting: Table 4, molar ratio 1.50:16.00:34.00:48.50, N/P 55, IV formulation.
Setting [4] is: Table 2, IV, whole body scan, molar ratio DMG-PEG2000:DSPC:Chol:Lipid and N/P.

Regarding `CCCCCCCCCCCCOC(=O)C(O)CN(CCN1CCN(CCN(CC(O)C(=O)OCCCCCCCCCCCC)CC(O)C(=O)OCCCCCCCCCCCC)CC1)CCN(CC(O)C(=O)OCCCCCCCCCCCC)CC(O)C(=O)OCCCCCCCCCCCC` (stereo not drawn) [Compound L0199], the “OD 450 nm-630 nm” value in the series on Delta-S protein is reported as 1.52. For the same molecule, the “Particle size (nm)” value in series [1] (Table 2, LNP formulation with mRNA, molar ratio 1.40:11.15:38.95:48.50, N/P 40) came out at 97.65 ± 0.59 nm; in series [1] (Table 2, LNP formulation with mRNA, molar ratio 2.50:7.00:42.00:48.50, N/P 55) it was 130.00 ± 1.47 nm; in series [1] (setting [2]), 123.50 ± 0.36 nm; in series [1] (setting [3]), 147.57 ± 1.17 nm. In addition, the PDI worked out at 0.11 ± 0.01 in series [1] (Table 2, polydispersity value, molar ratio 1.40:11.15:38.95:48.50, N/P 40); 0.12 ± 0.01 in series [1] (Table 2, polydispersity value, molar ratio 2.50:7.00:42.00:48.50, N/P 55); 0.09 ± 0.02 in series [1] (setting [2]); 0.10 ± 0.02 in series [1] (setting [3]). Also, the “In vivo IVIS” value in the series on mice (Table 2, IM, whole body scan) is recorded as 2.19 × 10^7; in the series with mice (setting [4]), 1.07 × 10^9; in the series on mice (Table 4, IM), 5.93 × 10^6; in the series on mice (Table 4, IV) it was 9.35 × 10^8. In addition, the “in vivo delivery efficiency as compared to the benchmark compound SM102” value in the series on mice (Table 2) is “superior in vivo delivery efficiency”.
As for `CCCCCCOCOCCCCCCOC(=O)C(O)CN(CCN1CCN(CCN(CC(O)C(=O)OCCCCCCOCOCCCCCC)CC(O)C(=O)OCCCCCCOCOCCCCCC)CC1)CCN(CC(O)C(=O)OCCCCCCOCOCCCCCC)CC(O)C(=O)OCCCCCCOCOCCCCCC` (stereo not drawn) [Compound L0200], the “OD 450 nm-630 nm” value in the series with Delta-S protein is on record as 1.61. Besides, the “Particle size (nm)” value was 106.93 ± 0.71 nm in series [1] (Table 2, LNP formulation with mRNA, molar ratio 1.00:7.00:57.00:35.00, N/P 35); 117.90 ± 0.36 nm in series [1] (Table 2, LNP formulation with mRNA, molar ratio 1.40:11.15:38.95:48.50, N/P 65); 104.50 ± 0.26 nm in series [1] (Table 2, LNP formulation with mRNA, molar ratio 2.00:16.00:22.00:60.00, N/P 35). Also, the PDI in series [1] (Table 2, polydispersity value, molar ratio 1.00:7.00:57.00:35.00, N/P 35) came to 0.06 ± 0.01; in series [1] (Table 2, polydispersity value, molar ratio 1.40:11.15:38.95:48.50, N/P 65) it was 0.08 ± 0.02; in series [1] (Table 2, polydispersity value, molar ratio 2.00:16.00:22.00:60.00, N/P 35), 0.12 ± 0.01. Also, the “In vivo IVIS” value in the series with mice (Table 2, IM, whole body scan) is 3.08 × 10^5. The “in vivo delivery efficiency as compared to the benchmark compound SM102” value in the series on mice (Table 2) is “superior in vivo delivery efficiency”.
On to `CCCCCCCCCCNC(=O)C(O)CN1CCN(CCN(CC(O)C(=O)NCCCCCCCCCC)CC(O)C(=O)NCCCCCCCCCC)CC1` (stereo not drawn) [Compound L0180], for which the “Particle size (nm)” value in series [1] (Table 2, LNP formulation with mRNA, molar ratio 1.09:8.66:30.25:60.00, N/P 21) is on record as 84.26 ± 0.81 nm; in series [1] (Table 2, LNP formulation with mRNA, molar ratio 1.40:11.15:38.95:48.50, N/P 21) it was 86.34 ± 1.35 nm. In addition, the PDI in series [1] (Table 2, polydispersity value, molar ratio 1.09:8.66:30.25:60.00, N/P 21) is recorded as 0.13 ± 0.01; in series [1] (Table 2, polydispersity value, molar ratio 1.40:11.15:38.95:48.50, N/P 21), 0.18 ± 0.01. The “In vivo IVIS” value in the series with mice (Table 2, IM, whole body scan) is recorded as 1.10 × 10^7; in the series on mice (setting [4]) it was 3.15 × 10^6.
Consider `CCCCCCCCCCNC(=O)C(O)CN(CCCN1CCN(CCCN(CC(O)C(=O)NCCCCCCCCCC)CC(O)C(=O)NCCCCCCCCCC)CC1)CC(O)C(=O)NCCCCCCCCCC` (stereo not drawn) [Compound L0189], for which the “Particle size (nm)” value in series [1] (Table 2, LNP formulation with mRNA, molar ratio 1.09:8.66:30.25:60.00, N/P 20) was determined as 106.80 ± 0.85 nm; in series [1] (Table 2, LNP formulation with mRNA, molar ratio 1.40:11.15:38.95:48.50, N/P 10) it was 85.92 ± 0.69 nm. The PDI is 0.06 ± 0.04 in series [1] (Table 2, polydispersity value, molar ratio 1.09:8.66:30.25:60.00, N/P 20) and 0.07 ± 0.02 in series [1] (Table 2, polydispersity value, molar ratio 1.40:11.15:38.95:48.50, N/P 10). For the same molecule, the “In vivo IVIS” value is reported as 2.16 × 10^6 in the series with mice (Table 2, IM, whole body scan) and 3.12 × 10^7 with mice (setting [4]).
In series [1] (Table 4), `CCCCCCCCCCCCOC(=O)C(O)CN(Cc1ccc(CN(CC(O)C(=O)OCCCCCCCCCCCC)CC(O)C(=O)OCCCCCCCCCCCC)cc1)CC(O)C(=O)OCCCCCCCCCCCC` (stereo not drawn) [Compound L0207] gave a PDI of 0.19 ± 0.00. Besides, the “Particle size (nm)” value in series [1] (Table 4) is reported as 172.13 ± 1.53 nm. Moreover, the “In vivo IVIS” value is reported as 1.75 × 10^5 in the series with mice (Table 4, IM) and 2.41 × 10^5 in the series on mice (Table 4, IV).
Turning to `CCCCCCCCCCOC(=O)C(O)CN(CCN1CCN(CCN(CC(O)C(=O)OCCCCCCCCCC)CC(O)C(=O)OCCCCCCCCCC)CC1)CCN(CC(O)C(=O)OCCCCCCCCCC)CC(O)C(=O)OCCCCCCCCCC` (stereo not drawn) [Compound L0210], the PDI in series [1] (Table 4) is reported as 0.15 ± 0.01. The “Particle size (nm)” value in series [1] (Table 4, molar ratio 1.00:16.00:48.00:35.00, N/P 30, IV formulation) is recorded as 101.83 ± 0.21 nm; in series [1] (setting [2]), 94.89 ± 0.78 nm. Moreover, the “In vivo IVIS” value in the series on mice (Table 4, IM) is 2.48 × 10^7; with mice (Table 4, IV), 6.93 × 10^9.
Consider `CCCCCCCCCCSSCCOC(=O)C(O)CN1CCN(CCN(CC(O)C(=O)OCCSSCCCCCCCCCC)CC(O)C(=O)OCCSSCCCCCCCCCC)CC1` (stereo not drawn) [Compound L0185], for which the “Particle size (nm)” value in series [1] (Table 2, LNP formulation with mRNA, molar ratio 0.95:7.58:26.47:65.00, N/P 30) was determined as 94.35 ± 0.52 nm; in series [1] (Table 2, LNP formulation with mRNA, molar ratio 1.40:11.15:38.95:48.50, N/P 30), 84.46 ± 1.39 nm. The PDI in series [1] (Table 2, polydispersity value, molar ratio 0.95:7.58:26.47:65.00, N/P 30) is on record as 0.13 ± 0.02; in series [1] (Table 2, polydispersity value, molar ratio 1.40:11.15:38.95:48.50, N/P 30), 0.20 ± 0.00. Besides, the “In vivo IVIS” value is 2.52 × 10^7 in the series with mice (Table 2, IM, whole body scan) and 2.72 × 10^6 with mice (setting [4]).
In the case of `CCCCCCCCCCNC(=O)C(O)CN(CC(O)C(=O)NCCCCCCCCCC)[C@H]1CC[C@H](N(CC(O)C(=O)NCCCCCCCCCC)CC(O)C(=O)NCCCCCCCCCC)CC1` (stereo partly drawn) [Compound L0218], in series [1] (Table 4), the PDI came to 0.07 ± 0.02 and the “Particle size (nm)” value amounted to 109.43 ± 1.16 nm. Further, the “In vivo IVIS” value in the series on mice (Table 4, IM) is listed as 8.49 × 10^5. Besides, the “In vivo IVIS” value with mice (Table 4, IV) is 5.55 × 10^5.
